# Literature values as cited in patent US11603416B2, “Method for preparation of derivatives of gram-positive bacteria surface capsular polysaccharide” (priority 2018, dated 2023).
# System: children with severe ASD
# Settings: oral administration; effect disappears once the drug is discontinued
structure (smiles),measurement,value
CN[C@H](CC(C)C)C(=O)N[C@H]1C(=O)N[C@@H](CC(N)=O)C(=O)N[C@H]2C(=O)N[C@H]3C(=O)N[C@H](C(=O)N[C@H](C(=O)O)c4cc(O)cc(O)c4-c4cc3ccc4O)[C@H](O)c3ccc(c(Cl)c3)Oc3cc2cc(c3O[C@@H]2O[C@H](CO)[C@@H](O)[C@H](O)[C@H]2O[C@H]2C[C@](C)(N)[C@H](O)[C@H](C)O2)Oc2ccc(cc2Cl)[C@H]1O [vancomycin],child patients whose autism symptoms have been relieved for a short time,80%
